From ChEMBL document CHEMBL1137231, “Efficient evaluation of binding free energy using continuum electrostatics solvation” (J Med Chem, 2004)
Numbered stars: 1 amine (or outer) side, 2 acyl side, 3 side chain; on linkers, the order of the positions; unused ones are H or OH. Square brackets hold non-standard residues; d marks the D form. Peptide text beside a SMILES is read from it. * marks the point of attachment. Hexanoyl(5S-NH,4S-OH,6-Ph) = O=C(CC[C@H](O)[C@H](Cc1ccccc1)N[*:1])[*:2]; X3 = O=C([C@H](Cc1ccccc1)C[C@H](O)[C@H](Cc1ccccc1)N[*:1])[*:2]; X4 = CC(C)C[C@H](C[C@H](O)[C@H](Cc1ccccc1)N[*:1])C(=O)[*:2]; X1 = CCC[C@H](C[C@H](O)[C@H](Cc1ccccc1)N[*:1])C(=O)[*:2]; X2 = C[C@H](C[C@H](O)[C@H](Cc1ccccc1)N[*:1])C(=O)[*:2]; Cbz = O=C(OCc1ccccc1)*

Experiments:
[1] = molecular target: Human immunodeficiency virus type 1 protease (Human immunodeficiency virus 1, UniProt Q72874); experiment: Binding affinity towards human immunodeficiency virus type 1 protease determined using continuum electrostatics solvation
Beta-secretase 1 = Beta-secretase 1 (Homo sapiens, UniProt P56817); experiment: Binding affinity towards Beta-secretase determined using continuum electrostatics solvation
Beta-secretase 1, sequence (P56817 whole entry): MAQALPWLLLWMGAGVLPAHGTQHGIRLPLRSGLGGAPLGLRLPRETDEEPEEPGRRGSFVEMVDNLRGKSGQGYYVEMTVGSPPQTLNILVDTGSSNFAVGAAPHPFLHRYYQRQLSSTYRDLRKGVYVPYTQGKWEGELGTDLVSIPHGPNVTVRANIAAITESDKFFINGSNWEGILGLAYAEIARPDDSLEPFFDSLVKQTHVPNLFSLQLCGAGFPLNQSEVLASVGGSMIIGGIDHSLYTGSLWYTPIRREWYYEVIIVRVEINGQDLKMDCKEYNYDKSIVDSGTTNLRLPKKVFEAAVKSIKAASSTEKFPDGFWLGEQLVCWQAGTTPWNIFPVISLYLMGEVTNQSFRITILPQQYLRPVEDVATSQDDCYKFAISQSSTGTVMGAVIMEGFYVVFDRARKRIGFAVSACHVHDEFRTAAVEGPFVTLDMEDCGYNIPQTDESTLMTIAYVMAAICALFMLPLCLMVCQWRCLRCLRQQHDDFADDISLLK

SMILES | Ki [1] | Ki (Beta-secretase 1)
CC(NC(=O)OCc1ccccc1)C(=O)NC(Cc1ccccc1)[C@@H](O)CCC(=O)NC(C(N)=O)C(C)C (some centres undefined) | 2500 nM | 
COC(=O)C(NC(=O)C(NC(=O)[C@H](CC(C)C)C[C@H](O)C(Cc1ccccc1)NC(=O)C(C)NC(=O)OCc1ccccc1)C(C)C)C(C)C (some centres undefined) | 0.9 nM | 
CCC[C@H](C[C@H](O)C(Cc1ccccc1)NC(=O)OC(C)(C)C)C(=O)NC(C(N)=O)C(C)C (some centres undefined) | 50 nM | 
CC(NC(=O)OCc1ccccc1)C(=O)NC(Cc1ccccc1)[C@@H](O)C[C@@H](C)C(=O)NC(C(N)=O)C(C)C (some centres undefined) | 50 nM | 
CC(NC(=O)OCc1ccccc1)C(=O)NC(Cc1ccccc1)[C@@H](O)C[C@@H](Cc1ccccc1)C(=O)NC(C(N)=O)C(C)C (some centres undefined) | 0.6 nM | 
CC(C)C[C@H](NC(=O)[C@@H](NC(=O)OC(C)(C)C)C(N)=O)C(O)CC(C)C(=O)N[C@@H](C)C(=O)NCc1ccccc1 (some centres undefined) |  | 22400 nM
CSCCC(NC(=O)[C@@H](NC(=O)OC(C)(C)C)C(C)C)C(=O)N[C@@H](CC(C)C)C(O)CC(C)C(=O)N[C@H](C(=O)NCc1ccccc1)C(C)C (some centres undefined) |  | 2.5 nM
COC(=O)C(NC(=O)C(NC(=O)[C@H](Cc1ccccc1)C[C@H](O)C(Cc1ccccc1)NC(=O)C(C)NC(=O)OCc1ccccc1)C(C)C)C(C)C (some centres undefined) | 0.6 nM | 
COC(=O)C(NC(=O)C(NC(=O)[C@H](C)C[C@H](O)C(Cc1ccccc1)NC(=O)C(C)NC(=O)OCc1ccccc1)C(C)C)C(C)C (some centres undefined) | 1.6 nM | 
CC(C)C[C@H](C[C@H](O)C(Cc1ccccc1)NC(=O)C(C)NC(=O)OCc1ccccc1)C(=O)NC(C(N)=O)C(C)C (some centres undefined) | 3.9 nM | 
CC(C)C(NC(=O)[C@H](C)C[C@H](O)C(Cc1ccccc1)NC(=O)OC(C)(C)C)C(N)=O (some centres undefined) | 260 nM | 
CC(C)C[C@H](NC(=O)[C@@H](NC(=O)OC(C)(C)C)C(N)=O)C(O)CC(C)C(=O)N[C@H](C(=O)NCc1ccccc1)C(C)C (some centres undefined) |  | 3130 nM
CC(C)C[C@H](C[C@H](O)C(Cc1ccccc1)NC(=O)OC(C)(C)C)C(=O)NC(C(N)=O)C(C)C (some centres undefined) | 23 nM | 
CC(C)C[C@H](NC(=O)C(NC(=O)[C@@H](NC(=O)OC(C)(C)C)C(C)C)C(N)=O)C(O)CC(C)C(=O)N[C@H](C(=O)NCc1ccccc1)C(C)C (some centres undefined) |  | 5.9 nM
CC(C)C[C@H](NC(=O)C(CS(C)(=O)=O)NC(=O)[C@@H](NC(=O)OC(C)(C)C)C(C)C)C(O)CC(C)C(=O)N[C@H](C(=O)NCc1ccccc1)C(C)C (some centres undefined) |  | 9.4 nM
CC(C)C[C@H](NC(=O)C(NC(=O)[C@@H](NC(=O)OC(C)(C)C)C(C)C)C(N)=O)C(O)CC(C)C(=O)N[C@@H](C)C(=O)NCc1ccccc1 (some centres undefined) |  | 61.4 nM
CC(C)C(NC(=O)CC[C@H](O)C(Cc1ccccc1)NC(=O)OC(C)(C)C)C(N)=O (some centres undefined) | 6500 nM | 

SMILES | Ki [1] | Ki (Beta-secretase 1)
COC(=O)C(NC(=O)C(NC(=O)CC[C@H](O)C(Cc1ccccc1)NC(=O)C(C)NC(=O)OCc1ccccc1)C(C)C)C(C)C (some centres undefined) | 118 nM | 
CSCCC(NC(=O)OC(C)(C)C)C(=O)N[C@@H](CC(C)C)C(O)CC(C)C(=O)N[C@H](C(=O)NCc1ccccc1)C(C)C (some centres undefined) |  | 58.8 nM
CC(C)C[C@H](NC(=O)[C@H](CS(C)(=O)=O)NC(=O)OC(C)(C)C)C(O)CC(C)C(=O)N[C@H](C(=O)NCc1ccccc1)C(C)C (some centres undefined) |  | 1130 nM
CCC[C@H](C[C@H](O)C(Cc1ccccc1)NC(=O)C(C)NC(=O)OCc1ccccc1)C(=O)NC(C(=O)NC(C(=O)OC)C(C)C)C(C)C (some centres undefined) | 0.6 nM | 
CC(C)C[C@H](NC(=O)[C@@H](N)CCC(=O)O)C(=O)N[C@@H](CC(=O)O)C(=O)N[C@@H](CC(C)C)C(=O)C(O)CN[C@@H](C)C(=O)N[C@H](C(=O)N[C@@H](CCC(=O)O)C(=O)N[C@@H](Cc1ccccc1)C(=O)O)C(C)C (some centres undefined) |  | 0.3 nM
CSCC(NC(=O)[C@@H](NC(=O)OC(C)(C)C)C(C)C)C(=O)N[C@@H](CC(C)C)C(O)CC(C)C(=O)N[C@H](C(=O)NCc1ccccc1)C(C)C (some centres undefined) |  | 50.1 nM
CC(C)C(NC(=O)[C@H](Cc1ccccc1)C[C@H](O)C(Cc1ccccc1)NC(=O)OC(C)(C)C)C(N)=O (some centres undefined) | 1.4 nM | 
CCC[C@H](C[C@H](O)C(Cc1ccccc1)NC(=O)C(C)NC(=O)OCc1ccccc1)C(=O)NC(C(N)=O)C(C)C (some centres undefined) | 20 nM | 
COC(=O)[C@@H](NC(=O)[C@@H](NC(=O)CC[C@H](O)[C@H](Cc1ccccc1)NC(=O)[C@H](C)NC(=O)[C@H](C)NC(=O)OCc1ccccc1)C(C)C)C(C)C (Cbz-AA[Hexanoyl(5S-NH,4S-OH,6-Ph)]VV-OMe) | 44 nM | 
CCC[C@H](C[C@H](O)[C@H](Cc1ccccc1)NC(=O)[C@H](C)NC(=O)[C@H](C)NC(=O)OCc1ccccc1)C(=O)N[C@H](C(=O)N[C@H](C(=O)OC)C(C)C)C(C)C (Cbz-AA[X1]VV-OMe) | 0.4 nM | 
COC(=O)[C@@H](NC(=O)[C@@H](NC(=O)[C@H](C)C[C@H](O)[C@H](Cc1ccccc1)NC(=O)[C@H](C)NC(=O)[C@H](C)NC(=O)OCc1ccccc1)C(C)C)C(C)C (Cbz-AA[X2]VV-OMe) | 0.6 nM | 
COC(=O)[C@@H](NC(=O)[C@@H](NC(=O)[C@H](Cc1ccccc1)C[C@H](O)[C@H](Cc1ccccc1)NC(=O)[C@H](C)NC(=O)[C@H](C)NC(=O)OCc1ccccc1)C(C)C)C(C)C (Cbz-AA[X3]VV-OMe) | 0.4 nM | 
COC(=O)[C@@H](NC(=O)[C@@H](NC(=O)[C@H](CC(C)C)C[C@H](O)[C@H](Cc1ccccc1)NC(=O)[C@H](C)NC(=O)[C@H](C)NC(=O)OCc1ccccc1)C(C)C)C(C)C (Cbz-AA[X4]VV-OMe) | 0.8 nM | 
COC(=O)[C@@H](NC(=O)[C@@H](NC(=O)CC[C@H](O)[C@H](Cc1ccccc1)NC(=O)[C@H](C)NC(=O)[C@H](C)N)C(C)C)C(C)C (H-AA[Hexanoyl(5S-NH,4S-OH,6-Ph)]VV-OMe) | 4 nM | 
CCC[C@H](C[C@H](O)[C@H](Cc1ccccc1)NC(=O)[C@H](C)NC(=O)[C@H](C)N)C(=O)N[C@H](C(=O)N[C@H](C(=O)OC)C(C)C)C(C)C (H-AA[X1]VV-OMe) | 1.2 nM | 
COC(=O)[C@@H](NC(=O)[C@@H](NC(=O)[C@H](C)C[C@H](O)[C@H](Cc1ccccc1)NC(=O)[C@H](C)NC(=O)[C@H](C)N)C(C)C)C(C)C (H-AA[X2]VV-OMe) | 3 nM | 
COC(=O)[C@@H](NC(=O)[C@@H](NC(=O)[C@H](CC(C)C)C[C@H](O)[C@H](Cc1ccccc1)NC(=O)[C@H](C)NC(=O)[C@H](C)N)C(C)C)C(C)C (H-AA[X4]VV-OMe) | 0.6 nM | 
